In patent US20090076032A1, “Derivatives of 18Beta-Glycyrrhetinic Acid” (priority 2006, published 2009):
Like-named read-outs stand apart in the source and are kept apart here.

Legend:
[1] = tested on: normal human keratinocytes (NHEKa); type: cell-based; details: 24 hours
Method: The cells used were normal human keratinocytes (NHEKa). All cells were cultured in T75 flasks according to the supplier's guidelines for maintenance of stocks. Frozen stocks of cells that had gone through two passages were seeded into T25 flasks at a seeding density of 2.5×10^3 cells per cm^2. The cells were then left to grow over 5 days with media changes being carried out every two days.
Cell culture treatment media were prepared for all the test compounds at four concentrations, namely 1 μM, 2.5 μM, 5 μM and 10 μM (final concentration). Control treatments on cells of normal media (no treatment) and DMSO were also carried out.
All treatment media were sterilised by filtration and added to the T25 flasks after removal of spent media. The cells were then incubated at 37° C. for 24 hours. The treatment media were removed from the T25 flasks and the cells washed with 5 ml of PBS before 1 ml of Trypsin/EDTA (TE) (Cascade, Mansfield, UK) solution was added to the flaks and left for approximately 8-10 minutes for the cells to lift off the growth surface. The trypsin was neutralised with 3 ml Trypsin Neutraliser (TN) (Cascade). The cells were then harvested and transferred to a separate 15 ml centrifuge tube for each treatment regime. The cells were spun at 180×g for 7 minutes and the medium was removed.
The cells were resuspended in 1 ml of ice cold PBS before being transferred to a microcentrifuge tube and spun at 200×g for 2 minutes. The PBS was removed and the cells were resuspended in 100 μl of binding buffer (10 mM Hepes, 140 mM NaCl, 2.5 mM CaCl2, pH 7.4) before the addition of 5 μl of a propidium iodide (PI) staining solution (BD Biosciences, Cowley, UK). The cells were incubated at 20° C. for 5 minutes before the addition of 300 μl of binding buffer followed by immediate analysis by flow cytometry. Cells taking up the PI stain were dead, cells not staining with PI were viable. The level of staining within the cells could be viewed by flow cytometry.
This type of analysis takes account of the natural variability in the growth and survival of different batches of cells. Data presented are from three repeats +SEM.

[2] = tested on: Normal human keratinocyte (NHEKa) cells; assay: NHEKa cell proliferation assay (ATP levels, CellTitre-Glo), example 11; type: cell-based
Method: Normal human keratinocyte (NHEKa) cells were cultured in the presence and absence of set concentrations of the five 18β-glycyrrhetinic acid derivatives, in multi-well assay plates (96), over a five-day period. The cells, seeded at a density of 5,000 or 2,500 cells per well, were cultured in keratinocyte growth medium (KGM) (Cascade Biologics), to which retinol and various concentrations of the 18β-glycyrrhetinic acid derivatives dissolved in KGM and DMSO were added. Control treatments included KGM only, KGM and retinol, and KGM and DMSO.
After the five-day period, cell proliferation was determined by assay of ATP levels (directly associated with cell density) using a commercially available kit (CellTitre-Glo, Promega). In the presence of suitable controls, reduced proliferation (cell growth measured by ATP generation) indicates an anti-proliferative effect of a given 18β-glycyrrhetinic acid derivative.

[3] = tested on: NHEKa cells; assay: NHEKa cell viability/proliferation assay, amended plate design (ATP luminescence), example 12; details: retinol 500 nM; for luminescence compared to the controls: 2.5 μM inhibitor
Method: To obtain a direct comparison of each inhibitor compared with carbenoxolone, the design of the assay was amended, so that each plate contained a range of different inhibitors at the same concentration compared to carbenoxolone. This removed inter-plate variation when comparing inhibitors used at the same concentration.
The medium (200 μl in each well) was replaced after 24 and 72 hours of growth with fresh pre-warmed medium containing retinol (500 nM final concentration) and the indicated inhibitor, consequently the length of treatment was 72 hours.

[4] = target: T1, recombinant human retinol dehydrogenase enzyme 2 (hRoDH-E2) (Homo sapiens, UniProt Q9BPW9); assay: Spectrometric hRoDH-E2 activity assay (retinal generation at 400 nm); type: biochemical; details: E. coli RIL (+hRoDH-E2) SS, 15.625-250 μM, 2.5% DMSO, 125 μM retinol
T1 construct: host or cells: E. coli RIL
Method: A reaction mix was prepared, consisting of a buffered solution containing excess retinol (10 mM HEPES, 150 mM KCl, 2 mM EDTA, pH 8.0; 0.02% Tween 80; 125 μM retinol). Preliminary experiments concluded that sufficient cofactor was present in the crude enzyme source, therefore, this was not supplemented into the reaction buffer. The enzyme source was provided by the BioCatalysis Centre, University of Exeter, as a crude sonicated supernatant (SS) from harvested E. coli RIL cells transfected with the hRoDH-E2 expression vector. […] The reaction, initiated by the addition of enzyme (accounting for 5% total reaction volume), was monitored at 400 nm to measure the generation of retinal from retinol. The rate of retinal generation was determined as the change in milli-absorbance units per minute (mAbs/min).
Multi-well assay plates (96) were preloaded with DMSO (2.5% final reaction volume), containing inhibitor where required. […] The contents of each well were mixed by aspiration and the plate loaded into a multi-well plate reader set at 37° C. The generation of retinal was monitored at 400 nm over 30 minutes, during which time the reaction reached maximum velocity under uninhibited conditions after 600 seconds and began to decelerate after 1200 seconds in each case tested. […]

[5] = all four concentrations (1, 2.5, 5 and 10 μM)

T1 sequence (Q9BPW9 18-319): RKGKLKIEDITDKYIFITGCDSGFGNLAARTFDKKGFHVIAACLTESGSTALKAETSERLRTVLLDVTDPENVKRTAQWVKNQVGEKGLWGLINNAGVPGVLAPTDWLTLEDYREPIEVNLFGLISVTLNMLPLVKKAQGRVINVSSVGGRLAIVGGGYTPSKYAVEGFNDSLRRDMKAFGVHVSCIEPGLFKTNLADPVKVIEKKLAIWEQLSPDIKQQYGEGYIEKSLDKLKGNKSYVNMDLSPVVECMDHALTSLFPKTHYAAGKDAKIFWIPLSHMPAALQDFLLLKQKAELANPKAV

In the case of `CC1(C)[C@@H](OC(=O)[C@@H]2CCCC[C@@H]2C(=O)O)CC[C@]2(C)[C@H]3C(=O)C=C4[C@@H]5C[C@@](C)(C(=O)O)CC[C@]5(C)CC[C@@]4(C)[C@]3(C)CC[C@@H]12` (mixture of isomers) [YP024, cis-Cyclohexane-1,2-dicarboxylic acid mono-((3S,4aR,6aR,6bS,8aS,11S, 12aR,14aR,14bS)-11-carboxy-4,4,6a,6b,8a,11,14b-heptamethyl-14-oxo-1,2,3,4,4a,5,6,6a,6b, 7,8,8a,9,10,11,12, 12a, 14, 14a, 14b-icosahydro-picen-3-yl) ester], the “viability of NHEKa cells (proportion of viable cells referenced to DMSO)” value (shortened to “viability of NHEKa cells”) [1, 5] was “slight increase in viability”.
`COC(=O)[C@@]1(C)CC[C@]2(C)CCC3(C)C(=CC(=O)C4[C@@]5(C)CC[C@H](OC(=O)c6ccccc6C(=O)O)C(C)(C)C5CC[C@]43C)[C@@H]2C1` (stereo in doubt) [YP015, Phthalic acid mono-(11-methoxycarbonyl-4,4,6a,6b,8a,11,14b-heptamethyl-14-oxo-1,2,3,4,4a,5,6,6a,6b,7,8,8a,9, 10,11,12,12a, 14,14a, 14b-icosahydro-picen-3-yl) ester] was tested, and the “anti-proliferative properties compared with carbenoxolone sodium” value ([2]; at equal concentrations) was “more potent” and the “viability of NHEKa cells” value [1, 5] was “no decrease in viability”.
For `CC(=O)CC(=O)OC1CCC2(C)C(CCC3(C)C2C(=O)C=C2C4CC(C)(C(=O)O)CCC4(C)CCC23C)C1(C)C` (stereo not shown) [YP016, 2,4a,6a,6b,9,9,12a-Heptamethyl-13-oxo-10-(3-oxo-butyryloxy)-1,2,3,4,4a,5,6,6a,6b, 7,8,8a,9,10,11,12, 12a,12b,13,14b-icosahydro-picene-2-carboxylic acid], the “viability of NHEKa cells” value [1, 5] was “no decrease in viability”.
In the case of `CC(C)(CC(=O)O[C@H]1CC[C@]2(C)[C@H]3C(=O)C=C4[C@@H]5C[C@@](C)(C(=O)O)CC[C@]5(C)CC[C@@]4(C)[C@]3(C)CC[C@H]2C1(C)C)C(=O)O` [YP022, 2,2-Dimethyl-succinic acid 4-((3S,4aR,6aR,6bS,8aS,11S,12aR,14aR,14bS)-11-carboxy-4,4,6a,6b,8a,11,14b-heptamethyl-14-oxo-1,2,3,4,4a,5,6,6a,6b,7,8,8a,9,10,11,12, 12a,14,14a, 14b-icosahydro-picen-3-yl) ester], the “luminescence compared to the controls” value [3] was “significantly less luminescence”.
`CC1(C)[C@@H](OC(=O)C2=C(C(=O)O)CCC2)CC[C@]2(C)[C@H]3C(=O)C=C4[C@@H]5C[C@@](C)(C(=O)O)CC[C@]5(C)CC[C@@]4(C)[C@]3(C)CC[C@@H]12` [YP026, Cyclopent-1-ene-1,2-dicarboxylic acid mono-((3S,4aR,6aR,6bS,8aS,11S,12aR, 14aR,14bS)-11-carboxy-4,4,6a,6b,8a,11,14b-heptamethyl-14-oxo-1,2,3,4,4a,5,6,6a,6b,7,8,8a,9,10,11,12,12a,14,14a, 14b-icosahydro-picen-3-yl) ester] was tested, and the “luminescence compared to the controls” value [3] was “significantly less luminescence” and the “viability of NHEKa cells” value [1, 5] was “slight increase in viability”.
`CC1(C)[C@@H](OC(=O)CCC(=O)O)CC[C@]2(C)[C@H]3C(=O)C=C4[C@@H]5C[C@@](C)(C(=O)O)CC[C@]5(C)CC[C@@]4(C)[C@]3(C)CC[C@@H]12` [carbenoxolone sodium, reference compound] was tested, and the “effect on NHEKa cell proliferation (ATP levels compared to the controls)” value ([2]; five-day culture, with retinol, various concentrations) was “suppresses NHEKa cell proliferation”.
With `CC1(C)[C@@H](OC(=O)CCC(=O)O)CC[C@]2(C)[C@H]3C(=O)C=C4[C@@H]5C[C@@](C)(C(=O)O)CC[C@]5(C)CC[C@@]4(C)[C@]3(C)CC[C@@H]12` [carbenoxolone, reference compound] the “inhibition of recombinant hRoDH-E2 activity (generation of retinal from retinol)” value [4] was “reduce the generation of retinal from retinol”, the “luminescence compared to the controls” value [3] was “significantly less luminescence” and the “luminescence detected compared to the untreated control” value ([3]; 5.0 μM inhibitor) was 41%. For the same compound, the “viability of NHEKa cells” value ([1]; 1 μM and 2.5 μM) was “slight decrease in viability”.
For “trans-Cyclohexane-1,2-dicarboxylic acid mono-((3S,4aR,6aR,6bS,8aS,11S, 12aR,14aR,14bS)-11-carboxy-4,4,6a,6b,8a,11,14b-heptamethyl-14-oxo-1,2,3,4,4a,5,6,6a,6b, 7,8,8a,9,10,11,12,12a,14,14a, 14b-icosahydro-picen-3-yl) ester [YP023]”, the “viability of NHEKa cells” value [1, 5] was “slight increase in viability”.
